Measurements taken from patent US20090069565A1, “NEW INDOLE DERIVATIVES AS FACTOR XA INHIBITORS” (priority 2001, published 2009).
Where two headings read alike, the source gives them in different places.

Target: human factor Xa (Homo sapiens, UniProt P00742)
Assay: Factor Xa assay (chromogenic, substrate S-2765);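 note: purified enzyme preincubated with inhibitor for 10 min before substrate addition, final reaction volume 100 µl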
Type: biochemical
[1] = inhibition constant for factor Xa, purified enzyme 0.5 nM, substrate S-2765 140 μM, 25° C., pH 7.8, Ki=IC50/{1+(substrate concentration/Km)}, read-out: Ki(FXa)

Chain of human factor Xa (P00742 235-488 limits assumed): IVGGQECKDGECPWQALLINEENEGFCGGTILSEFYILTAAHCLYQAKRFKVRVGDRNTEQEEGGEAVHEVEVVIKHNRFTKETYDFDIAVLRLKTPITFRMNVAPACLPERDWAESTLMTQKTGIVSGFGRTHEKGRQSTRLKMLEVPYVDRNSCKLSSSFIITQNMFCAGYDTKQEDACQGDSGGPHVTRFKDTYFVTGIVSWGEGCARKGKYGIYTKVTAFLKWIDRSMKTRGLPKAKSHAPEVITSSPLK
Chain of human factor Xa (P00742 41-179 partner limits assumed): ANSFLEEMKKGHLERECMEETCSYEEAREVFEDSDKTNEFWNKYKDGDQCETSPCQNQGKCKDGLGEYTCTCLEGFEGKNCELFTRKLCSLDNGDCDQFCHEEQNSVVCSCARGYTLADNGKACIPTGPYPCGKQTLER

SMILES | Ki [1] | Ki (read-out: Ki(FXa)) | other results
CC(C)N1CCC(NC(=O)c2cc3cc(S(C)(=O)=O)ccc3n2Cc2cc(-c3ccc(Cl)s3)on2)CC1 [Example 2] | 20 nM |  | 
CC(C)N1CCC(NC(=O)c2cc3cc([N+](=O)[O-])ccc3n2Cc2cc(-c3ccc(Cl)s3)on2)CC1 [Example 3] | 1 nM |  | 
CC(C)N1CCC(NC(=O)c2cc3cc(OCc4ccccc4)ccc3n2Cc2cc(-c3ccc(Cl)s3)on2)CC1 [Example 4] | 834 nM |  | 
CC(C)N1CCC(NC(=O)c2cc3cc(Cl)ccc3n2Cc2cc(-c3ccc(Cl)s3)on2)CC1 [Example 5] | 5 nM |  | 
COc1ccc2c(c1)cc(C(=O)NC1CCN(C(C)C)CC1)n2Cc1cc(-c2ccc(Cl)s2)on1 [Example 6] |  | 13 nM | 
COc1ccc2cc(C(=O)NC3CCN(C(C)C)CC3)n(Cc3cc(-c4ccc(Cl)s4)on3)c2c1 [Example 7] |  | 4 nM | 
Cc1ccc2c(c1)cc(C(=O)NC1CCN(C(C)C)CC1)n2Cc1cc(-c2ccc(Cl)s2)on1 [Example 8] | 9 nM |  | 
COc1cc(OC)c2cc(C(=O)NC3CCN(C(C)C)CC3)n(Cc3cc(-c4ccc(Cl)s4)on3)c2c1 [Example 9] |  | 3 nM | 
COc1cc2cc(C(=O)NC3CCN(C(C)C)CC3)n(Cc3cc(-c4ccc(Cl)s4)on3)c2cc1OC [Example 10] |  | 182 nM | 
CC(C)N1CCC(NC(=O)c2cc3cccc([N+](=O)[O-])c3n2Cc2cc(-c3ccc(Cl)s3)on2)CC1 [Example 11] | 0.1 nM |  | 
CC(C)N1CCC(NC(=O)c2cc3cc(OC(F)(F)F)ccc3n2Cc2cc(-c3ccc(Cl)s3)on2)CC1 [Example 12] |  | 114 nM | 
CC(C)N1CCC(NC(=O)c2cc3cccc(NC(=O)C(C)(C)C)c3n2Cc2cc(-c3ccc(Cl)s3)on2)CC1 [Example 14] |  | 1720 nM | 
COc1cccc2c1cc(C(=O)NC1CCN(C(C)C)CC1)n2Cc1cc(-c2ccc(Cl)s2)on1 [Example 15] |  | 3.5 nM | 
CC(C)N1CCC(NC(=O)c2c(-c3ccccc3)c3ccccc3n2Cc2cc(-c3ccc(Cl)s3)on2)CC1 [Example 16] | 55 nM |  | 
COc1cc2cc(C(=O)NC3CCN(C(C)C)CC3)n(Cc3cc(-c4ccc(Cl)s4)on3)c2cc1O [Example 17] |  | 1970 nM | 
CC(C)N1CCC(NC(=O)c2cc3c(F)cc(F)cc3n2Cc2cc(-c3ccc(Cl)s3)on2)CC1 [Example 18] |  | 16 nM | 
CC(C)N1CCC(NC(=O)c2cc3c(OCc4ccccc4)cccc3n2Cc2cc(-c3ccc(Cl)s3)on2)CC1 [Example 19] |  | 50 nM | 
CC(C)N1CCC(NC(=O)c2cc3cccc(Cl)c3n2Cc2cc(-c3ccc(Cl)s3)on2)CC1 [Example 20] |  |  | Ki: 7 nM

SMILES | Ki [1] | Ki (read-out: Ki(FXa)) | other results
CC(C)N1CCC(NC(=O)c2cc3ccc(Cl)cc3n2Cc2cc(-c3ccc(Cl)s3)on2)CC1 [Example 21] | 7 nM |  | 
CCc1ccc2c(c1)cc(C(=O)NC1CCN(C(C)C)CC1)n2Cc1cc(-c2ccc(Cl)s2)on1 [Example 22] |  | 217 nM | 
CC(C)N1CCC(NC(=O)c2cc3cc(F)ccc3n2Cc2cc(-c3ccc(Cl)s3)on2)CC1 [Example 23] | 3 nM |  | 
CC(C)N1CCC(NC(=O)c2c(-c3ccccc3)c3cc([N+](=O)[O-])ccc3n2Cc2cc(-c3ccc(Cl)s3)on2)CC1 [Example 24] |  | 132 nM | 
CC(C)N1CCC(NC(=O)c2c(-c3ccccc3)c3cc(Cl)ccc3n2Cc2cc(-c3ccc(Cl)s3)on2)CC1 [Example 25] |  | 336 nM | 
CC(C)N1CCC(NC(=O)c2cc3cc(F)cc(F)c3n2Cc2cc(-c3ccc(Cl)s3)on2)CC1 [Example 26] |  | 0.1 nM | 
CC(C)N1CCC(NC(=O)c2cc3cc([N+](=O)[O-])cc([N+](=O)[O-])c3n2Cc2cc(-c3ccc(Cl)s3)on2)CC1 [Example 27] |  | 0.2 nM | 
O=C(NC1CCN(c2ccncc2)CC1)c1cc2ccccc2n1Cc1cc(-c2ccc(Cl)s2)on1 [Example 28, 1-[5-(5-Chloro-thiophen-2-yl)-isoxazol-3-ylmethyl]-1H-indole-2-carboxylic acid (3,4,5,6-tetrahydro-2H-[1,4′]bipyridinyl-4-yl)-amide] | 14 nM |  | 
Cc1cccc2cc(C(=O)NC3CCN(c4ccncc4)CC3)n(Cc3cc(-c4ccc(Cl)s4)on3)c12 [Example 29, 1-[5-(5-Chloro-thiophen-2-yl)-isoxazol-3-ylmethyl]-7-methyl-1H-indole-2-carboxylic acid (3,4,5,6-tetrahydro-2H-[1,4′]bipyridinyl-4-yl)-amide] |  | 19 nM | 
O=C(NC1CCN(c2ccncc2)CC1)c1cc2cc([N+](=O)[O-])ccc2n1Cc1cc(-c2ccc(Cl)s2)on1 [Example 30, 1-[5-(5-Chloro-thiophen-2-yl)-isoxazol-3-ylmethyl]-5-nitro-1H-indole-2-carboxylic acid (3,4,5,6-tetrahydro-2H-[1,4′]bipyridinyl-4-yl)-amide] |  | 25 nM | 
O=C(c1cc2ccccc2n1Cc1cc(-c2ccc(Cl)s2)on1)N1CCC(Nc2ccncc2)CC1 [Example 31, {1-[5-(5-Chloro-thiophen-2-yl)-isoxazol-3-ylmethyl]-1H-indol-2-yl}-[4-(pyridin-4-ylamino)-piperidin-1-yl]-methanone] | 18 nM |  | 
O=C(c1cc2cc([N+](=O)[O-])ccc2n1Cc1cc(-c2ccc(Cl)s2)on1)N1CCC(Nc2ccncc2)CC1 [Example 32, {1-[5-(5-Chloro-thiophen-2-yl)-isoxazol-3-ylmethyl]-5-nitro-1H-indol-2-yl}-[4-(pyridin-4-ylamino)-piperidin-1-yl]-methanone] |  | 37 nM | 
Cc1cccc2cc(C(=O)N3CCC(Nc4ccncc4)CC3)n(Cc3cc(-c4ccc(Cl)s4)on3)c12 [Example 33, {1-[5-(5-Chloro-thiophen-2-yl)-isoxazol-3-ylmethyl]-7-methyl-1H-indol-2-yl}-[4-(pyridin-4-ylamino)-piperidin-1-yl]-methanone] |  | 11 nM | 
Cc1cccc2cc(C(=O)N3CCC(NC(C)C)CC3)n(Cc3cc(-c4ccc(Cl)s4)on3)c12 [Example 35, {1-[5-(5-Chloro-thiophen-2-yl)-isoxazol-3-ylmethyl]-7-methyl-1H-indol-2-yl}-(4-isopropylamino-piperidin-1-yl)-methanone] |  | 502 nM | 
CCN1CCC(NC(=O)c2cc3ccccc3n2Cc2cc(-c3ccc(Cl)s3)on2)CC1 [Example 36, 1-[5-(5-Chloro-thiophen-2-yl)-isoxazol-3-ylmethyl]-1H-indole-2-carboxylic acid (1-ethyl-piperidin-4-yl)-amide] | 18 nM |  | 
CCN1CCC(NC(=O)c2cc3cccc(C)c3n2Cc2cc(-c3ccc(Cl)s3)on2)CC1 [Example 37, 1-[5-(5-Chloro-thiophen-2-yl)-isoxazol-3-ylmethyl]-7-methyl-1H-indole-2-carboxylic acid (1-ethyl-piperidin-4-yl)-amide] |  | 3 nM | 
O=C(c1cc2ccccc2n1Cc1cc(-c2ccc(Cl)s2)on1)N1CCC(N2CCCC2)CC1 [Example 38, {1-[5-(5-Chloro-thiophen-2-yl)-isoxazol-3-ylmethyl]-1H-indol-2-yl}-(4-pyrrolidin-1-yl-piperidin-1-yl)-methanone] |  | 701 nM | 
CN1CCC(N2CCN(C(=O)c3cc4ccccc4n3Cc3cc(-c4ccc(Cl)s4)on3)CC2)CC1 [Example 39, {1-[5-(5-Chloro-thiophen-2-yl)-isoxazol-3-ylmethyl]-1H-indol-2-yl}-[4-(1-methyl-piperidin-4-yl)-piperazin-1-yl]-methanone] |  | 2000 nM | 
